This note sets out measurements from patent US20080214565A1, “Oxazolidinone Derivatives as Antimicrobials” (priority 2003, published 2008).

One assay relates to Strep. pyog. ATCC 19615. The assay can be described thus: MIC by agar incorporation method, S. pyogenes 19615. The assay is classed as cell-based, Streptococcus pyogenes. The following applies: in vitro, 18 hours. From the text:
(§1) The compounds of the invention display antibacterial activity when tested by the agar incorporation method. The following minimum inhibitory concentrations (μg/ml) were obtained for representative compounds of the invention which are given below in the following table.
(§2) 1) S. aureus ATCC 25923—Staphylococus aureus ATCC 25923 2) MRSA 15187—Methicillin Resistant Staphylococcus aureus 3) Ent. faecalis ATCC 29212—Enterococcus faecalis ATCC 29212 4) Ent. faecium 6A—Enterococcus faecium 6A Van®, Cipro® 5) Strep. pne. ATCC 6303—Streptococcus pneumoniae ATCC 6303 6) Strep. pyog. ATCC 19615—Streptococcus pyogenes 7) S. epidermidis—Staphylococcus epidermidis ATCC 12228
(§3) Briefly, the compounds were dissolved in dimethylsulfoxide and doubling dilution of the compounds were incorporated into Meer Hilton agar before solidification. Inoculum was prepared by suspending 4 to 5 colonies into 5 ml of normal saline solution and adjusting the turbility to 0.5 Macfarland turbidity standard tables (1.5×10^8 CFU/ml), after appropriate dilutions, 10^4 CFU/spot was transferred into the surface of dried plate and incubated for 18 hours (24 hours for MRSN studies). The concentration showing no growth of the inoculated culture was recorded as the MIC. Appropriate ATCC standard strains were simultaneously tested and result recorded only when the MIC's against standard antibiotics were within the acceptable range.

Another assay deals with Ent. faecalis ATCC 29212. The assay can be described thus: MIC by agar incorporation method, E. faecalis 29212. Conditions: in vitro, 18 hours. In kind it is cell-based, Enterococcus faecalis.
Source text: as §1, §2, §3

The subject of a further assay is S. pneum AB34. The assay can be described thus: MIC by agar incorporation method, S. pneum AB34. The assay is classed as cell-based, Streptococcus pneumoniae. Conditions: in vitro, 18 hours. As to the method:
as §1, §3

Another assay deals with Strep. pne. ATCC 6303. The assay can be described thus: MIC by agar incorporation method, S. pneum 6303. The assay is classed as cell-based, Streptococcus pneumoniae. The following applies: in vitro, 18 hours.
Source text: as §1, §2, §3

Another assay deals with VRE 6A (Ent. faecium 6A). The assay can be described thus: MIC by agar incorporation method, VRE 6A. The following applies: in vitro, 18 hours. In kind it is cell-based, Enterococcus faecium.
Source text: as §1, §2, §3

A further assay relates to MRSA 562. The assay can be described thus: MIC by agar incorporation method, MRSA 562. The assay is classed as cell-based, Methicillin Resistant Staphylococcus aureus. The following applies: in vitro, 24 hours. Here is the method: as §1, §3
The next assay relates to MRSA 15187. The assay can be described thus: MIC by agar incorporation method, MRSA 15187. The assay is classed as cell-based, Methicillin Resistant Staphylococcus aureus. The following applies: in vitro, 24 hours.
Source text: as §1, §2, §3

In a further assay the test system is S. aureus ATCC 25923. The assay can be described thus: MIC by agar incorporation method, S. aureus ATCC 25923. In kind it is cell-based, Staphylococus aureus. The following applies: in vitro, 18 hours.
Source text: as §1, §2, §3

A further assay deals with MRSA 33. The assay can be described thus: MIC by agar incorporation method, MRSA 33. The assay is classed as cell-based, Methicillin Resistant Staphylococcus aureus. The following applies: in vitro, 24 hours. As to the method: as §1, §3

≈ marks a conversion by molar mass, not a printed value. Some results are limits rather than exact numbers.

With `NC(=S)NC[C@H]1CN(c2ccc(N3CCN(Cc4ccc([N+](=O)[O-])s4)CC3)c(F)c2)C(=O)O1` [Compound No. 12, (S)—N-[1-[[3-[3-Fluoro-4-[N-1-[4-{2-thienyl-(5-nitro)methyl}]piperazinyl]phenyl]-2-oxo-5-oxazolidinyl]methyl]]-thiourea], in the assay on Strep. pyog. ATCC 19615, the “minimum inhibitory concentration, S. pyogenes 19615” value was below 0.25 µg/mL. The “minimum inhibitory concentration, E. faecalis 29212” value with Ent. faecalis ATCC 29212 was found to be 1 µg/mL (≈ 2.02 µM). Moreover, the “minimum inhibitory concentration, S. pneum AB34” value in the assay on S. pneum AB34 is 0.5 µg/mL (≈ 1.01 µM). In the assay on Strep. pne. ATCC 6303, the “minimum inhibitory concentration, S. pneum 6303” value came to 0.5 µg/mL (≈ 1.01 µM). The “minimum inhibitory concentration, VRE 6A” value with VRE 6A (Ent. faecium 6A) came out at 0.5 µg/mL (≈ 1.01 µM). In the assay on MRSA 562, the “minimum inhibitory concentration, MRSA 562” value is 0.5 µg/mL (≈ 1.01 µM). Further, the “minimum inhibitory concentration, MRSA 15187” value with MRSA 15187 amounted to 0.5 µg/mL (≈ 1.01 µM). The “minimum inhibitory concentration, S. aureus 259231” value in the assay with S. aureus ATCC 25923 stood at 1 µg/mL (≈ 2.02 µM). For the same compound, in the assay on MRSA 33, the “minimum inhibitory concentration, MRSA 33” value was found to be 1 µg/mL (≈ 2.02 µM).
Regarding `NC(=S)NC[C@H]1CN(c2ccc(N3CCN(Cc4ccc([N+](=O)[O-])o4)CC3)c(F)c2)C(=O)O1` [Compound No. 10, (S)—N-[1-[[3-[3-Fluoro-4-[N-1-[4-{2-furyl-(5-nitro)methyl}]piperazinyl]phenyl]-2-oxo-5-oxazolidinyl]methyl]]-thiourea], in the assay on Strep. pyog. ATCC 19615, the “minimum inhibitory concentration, S. pyogenes 19615” value is 0.25 µg/mL (≈ 0.522 µM). Besides, in the assay on Ent. faecalis ATCC 29212, the “minimum inhibitory concentration, E. faecalis 29212” value was 0.5 µg/mL (≈ 1.04 µM). Besides, the “minimum inhibitory concentration, S. pneum AB34” value with S. pneum AB34 is 0.24 µg/mL (≈ 0.502 µM). The “minimum inhibitory concentration, S. pneum 6303” value in the assay with Strep. pne. ATCC 6303 was below 0.06 µg/mL. The “minimum inhibitory concentration, VRE 6A” value in the assay on VRE 6A (Ent. faecium 6A) came to 1 µg/mL (≈ 2.09 µM). In the assay on MRSA 562, the “minimum inhibitory concentration, MRSA 562” value came to 1 µg/mL (≈ 2.09 µM). Further, the “minimum inhibitory concentration, MRSA 15187” value in the assay on MRSA 15187 turned out to be 1 µg/mL (≈ 2.09 µM). Besides, the “minimum inhibitory concentration, S. aureus 259231” value in the assay on S. aureus ATCC 25923 was found to be 1 µg/mL (≈ 2.09 µM). Moreover, the “minimum inhibitory concentration, MRSA 33” value with MRSA 33 worked out at 1 µg/mL (≈ 2.09 µM).
